Results taken from patent publication US11149054B2, “Oxysterols and methods of use thereof” (Sage Therapeutics, Inc., priority 2016, dated 2021).
Where two headings read alike, the source gives them in different places.

Columns and labels:
[1] = target: GlunN1/GluN2A glutamate receptors (Homo sapiens (Human), UniProt Q05586+Q12879); assay: Whole-cell patch clamp of mammalian cells (Ionworks Barracuda), positive allosteric modulation, GluN1/GluN2A; type: cell-based
Protocol: (§1) The measurements were performed using Ion Works Barracuda platform following this procedure:
(§2) Electrophysiological Procedures:
(§3) • a) Intracellular solution (mM): 50 mM CsCl, 90 mM CsF, 2 mM MgCl2, 5 mM EGTA, 10 mM HEPES. Adjust to pH 7.2 with CsOH. • b) Extracellular solution, HB-PS (composition in mM): NaCl, 137; KCl, 1.0; CaCl2), 5; HEPES, 10; Glucose, 10; pH adjusted to 7.4 with NaOH (refrigerated until use). • c) Holding potential: −70 mV, potential during agonist/PAM application: −40 mV. Recording Procedure: • a) Extracellular buffer will be loaded into the PPC plate wells (11 μL per well). Cell suspension will be pipetted into the wells (9 μL per well) of the PPC planar electrode. • b) Whole-cell recording configuration will be established via patch perforation with membrane currents recorded by on-board patch clamp amplifiers. • c) Two recordings (scans) will be performed. First, during pre-application of test article alone (duration of pre-application—[…]) and second, during test articles and agonist (EC20 L-glutamate and 30 μM glycine) co-application to detect positive modulatory effects of the test article. […] Potentiating Effect of Positive Allosteric Modulators (PAM) on the Channel
(§4) PAM concentration-response data will be fitted to an equation of the form: % Activation=% L-glutamate EC20+{(% MAX−% L-glutamate EC20)/[1+([Test]/EC50)^N]}, where [Test] will be the concentration of PAM (test article), EC50 will be the concentration of PAM producing half-maximal activation, N will be the Hill coefficient, % L-glutamate EC20 will be the percentage of the current Elicited with L-glutamate EC20, % MAX is the percentage of the current activated with the highest dose of PAM co-admitted with L-glutamate EC20 and % Activation will be the percentage of the current elicited with L-glutamate EC10-30 at each PAM concentration. The maximal amplitude of the evoked currents are measured and defined as Peak Current Amplitude (PCA).

[2] = target: GluN2B glutamate receptors (Homo sapiens (Human), UniProt Q05586+Q13224); assay: Whole-cell patch clamp of mammalian cells (Ionworks Barracuda), positive allosteric modulation, GluN2B; type: cell-based; settings: for Emax: read-out: Avg Emax 2B (%)
Protocol: as §1, §2, §3, §4

[3] = HEK293 cells, % potentiation of current elicited with EC20 L-glutamate and 30 μM glycine, read-out: Avg Emax 2A (%)
[4] = % potentiation of current elicited with EC20 L-glutamate and 30 μM glycine
[5] = HEK293 cells, co-application with EC20 L-glutamate and 30 μM glycine, 8-point concentration-response, read-out: Avg EC50 2A
[6] = co-application with EC20 L-glutamate and 30 μM glycine, 8-point concentration-response, read-out: Avg EC50 2B

Chain of GlunN1/GluN2A glutamate receptors (Q12879 23-1464, other chains not shown): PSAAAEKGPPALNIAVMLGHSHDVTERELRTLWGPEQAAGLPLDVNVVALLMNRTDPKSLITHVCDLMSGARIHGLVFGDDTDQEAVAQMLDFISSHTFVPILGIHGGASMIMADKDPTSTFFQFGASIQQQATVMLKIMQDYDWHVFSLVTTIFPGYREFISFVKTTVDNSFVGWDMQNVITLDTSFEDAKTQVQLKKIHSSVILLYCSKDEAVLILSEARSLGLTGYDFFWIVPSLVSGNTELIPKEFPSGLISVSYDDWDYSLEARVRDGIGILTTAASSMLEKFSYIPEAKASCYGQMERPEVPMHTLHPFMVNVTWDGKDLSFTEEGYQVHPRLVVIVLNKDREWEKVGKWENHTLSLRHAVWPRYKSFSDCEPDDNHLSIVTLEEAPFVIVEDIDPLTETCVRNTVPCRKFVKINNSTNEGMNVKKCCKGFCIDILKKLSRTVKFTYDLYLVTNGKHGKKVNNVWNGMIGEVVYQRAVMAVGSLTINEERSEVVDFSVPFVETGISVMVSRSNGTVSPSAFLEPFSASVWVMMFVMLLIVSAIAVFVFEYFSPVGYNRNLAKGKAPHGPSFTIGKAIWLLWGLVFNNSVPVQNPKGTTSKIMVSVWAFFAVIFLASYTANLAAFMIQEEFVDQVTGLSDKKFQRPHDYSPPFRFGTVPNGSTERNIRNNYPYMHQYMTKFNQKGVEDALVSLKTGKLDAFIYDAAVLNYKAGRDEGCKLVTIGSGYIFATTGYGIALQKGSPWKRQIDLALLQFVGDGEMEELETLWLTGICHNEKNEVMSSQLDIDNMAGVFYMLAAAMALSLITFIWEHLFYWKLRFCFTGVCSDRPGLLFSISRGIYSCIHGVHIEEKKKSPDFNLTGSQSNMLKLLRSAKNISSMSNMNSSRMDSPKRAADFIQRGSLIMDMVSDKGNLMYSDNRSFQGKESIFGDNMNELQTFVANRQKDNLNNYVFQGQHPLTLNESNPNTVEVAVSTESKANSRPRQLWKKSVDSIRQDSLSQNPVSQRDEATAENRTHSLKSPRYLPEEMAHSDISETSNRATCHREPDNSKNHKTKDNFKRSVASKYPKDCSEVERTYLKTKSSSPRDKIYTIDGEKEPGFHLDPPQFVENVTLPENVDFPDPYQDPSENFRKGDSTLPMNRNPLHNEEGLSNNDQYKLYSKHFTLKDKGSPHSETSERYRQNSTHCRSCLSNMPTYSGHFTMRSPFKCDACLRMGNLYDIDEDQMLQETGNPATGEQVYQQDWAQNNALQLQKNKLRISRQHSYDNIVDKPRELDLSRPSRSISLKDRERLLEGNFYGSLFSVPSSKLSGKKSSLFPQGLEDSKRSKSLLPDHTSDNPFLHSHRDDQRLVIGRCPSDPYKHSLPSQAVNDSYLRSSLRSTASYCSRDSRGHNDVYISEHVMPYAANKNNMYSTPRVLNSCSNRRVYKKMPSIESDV
Chain of GluN2B glutamate receptors (Q13224 27-1484, other chains not shown): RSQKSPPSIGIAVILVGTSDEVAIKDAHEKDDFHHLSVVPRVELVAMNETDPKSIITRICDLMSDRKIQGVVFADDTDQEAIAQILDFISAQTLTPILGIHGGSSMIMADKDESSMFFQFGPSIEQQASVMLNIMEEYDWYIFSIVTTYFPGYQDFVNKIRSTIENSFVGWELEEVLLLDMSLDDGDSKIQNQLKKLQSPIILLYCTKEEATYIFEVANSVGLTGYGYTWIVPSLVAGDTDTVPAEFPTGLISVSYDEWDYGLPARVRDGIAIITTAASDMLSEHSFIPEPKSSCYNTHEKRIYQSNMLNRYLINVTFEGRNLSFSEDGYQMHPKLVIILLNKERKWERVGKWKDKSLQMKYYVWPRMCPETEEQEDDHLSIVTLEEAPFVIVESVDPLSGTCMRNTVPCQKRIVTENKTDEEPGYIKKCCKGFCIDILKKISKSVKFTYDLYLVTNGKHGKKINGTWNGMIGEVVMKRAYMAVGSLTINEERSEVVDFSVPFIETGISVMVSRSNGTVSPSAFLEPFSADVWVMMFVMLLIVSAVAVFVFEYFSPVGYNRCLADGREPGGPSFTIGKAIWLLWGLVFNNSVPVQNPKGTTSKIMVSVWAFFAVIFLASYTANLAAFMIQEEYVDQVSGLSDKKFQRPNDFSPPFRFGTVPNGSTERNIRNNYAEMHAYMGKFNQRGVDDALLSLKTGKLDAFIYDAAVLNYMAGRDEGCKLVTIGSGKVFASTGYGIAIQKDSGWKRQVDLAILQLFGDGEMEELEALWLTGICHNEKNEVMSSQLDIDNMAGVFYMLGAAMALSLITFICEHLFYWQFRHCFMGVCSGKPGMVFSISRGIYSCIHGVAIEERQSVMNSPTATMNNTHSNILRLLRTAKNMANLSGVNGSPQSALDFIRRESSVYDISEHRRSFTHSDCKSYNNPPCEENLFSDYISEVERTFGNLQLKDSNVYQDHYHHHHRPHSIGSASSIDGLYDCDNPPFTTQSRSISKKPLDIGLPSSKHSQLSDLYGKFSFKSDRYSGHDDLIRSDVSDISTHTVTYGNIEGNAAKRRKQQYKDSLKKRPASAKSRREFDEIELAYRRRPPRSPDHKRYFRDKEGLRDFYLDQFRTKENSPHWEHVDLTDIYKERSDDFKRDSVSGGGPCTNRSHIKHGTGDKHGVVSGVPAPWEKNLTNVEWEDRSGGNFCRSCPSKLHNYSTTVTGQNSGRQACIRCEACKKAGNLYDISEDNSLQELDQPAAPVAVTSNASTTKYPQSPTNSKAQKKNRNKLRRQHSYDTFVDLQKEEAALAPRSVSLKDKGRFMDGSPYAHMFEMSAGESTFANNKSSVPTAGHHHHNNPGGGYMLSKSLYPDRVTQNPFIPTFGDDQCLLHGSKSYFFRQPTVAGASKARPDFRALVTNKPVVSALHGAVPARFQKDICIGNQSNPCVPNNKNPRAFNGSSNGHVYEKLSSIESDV

Row | Structure (SMILES) | EC50 [1] | Emax [1, 3] | EC50 [2] | Emax [2, 4] | Emax ([1]; HEK293, read-out: Avg Emax 2A (%)) | Emax [2] | EC50 [1, 5] | EC50 [2, 6]
1 | C[C@H](CCC(O)c1ccccc1)[C@H]1CC[C@H]2[C@@H]3CC=C4C[C@@](C)(O)CC[C@]4(C)[C@H]3CC[C@]12C (stereo partly shown) [Compound 356] | 415 nM | 59.6% | 923 nM | 156% |  |  |  | 
2 | CC[C@]1(O)CC[C@H]2[C@@H](CC[C@@H]3[C@@H]2CC[C@]2(C)[C@@H]([C@H](C)CCCO)CC[C@@H]32)C1 [Compound 376] | > 10000 nM | 49.9% | > 10000 nM | 59.8% |  |  |  | 
3 | C[C@H](CCC(C)(O)c1ccccc1)[C@H]1CC[C@H]2[C@@H]3CC=C4C[C@@](C)(O)CC[C@]4(C)[C@H]3CC[C@]12C (stereo partly shown) [Compound 456] |  |  |  |  | 53.4% | 74.8% |  | 
4 | CC[C@]1(O)CC[C@H]2[C@@H](CC[C@@H]3[C@@H]2CC[C@]2(C)[C@@H]([C@H](C)CCC(O)C(C)C)CC[C@@H]32)C1 (stereo partly shown) [Compound 476] | 406 nM | 811% | 189 nM | 399% |  |  |  | 
5 | C[C@H](CCC(O)(c1ccccc1)C(F)(F)F)[C@H]1CC[C@H]2[C@@H]3CC=C4C[C@@](C)(O)CC[C@]4(C)[C@H]3CC[C@]12C (stereo partly shown) [Compound 559] |  | 204% |  | 373% |  |  |  | 
6 | C[C@H](CCC(O)Cc1ccccc1)[C@H]1CC[C@H]2[C@@H]3CC=C4C[C@@](C)(O)CC[C@]4(C)[C@H]3CC[C@]12C (stereo partly shown) [Compound 660] |  | 195% |  | 281% |  |  |  | 
7 | CC[C@]1(O)CC[C@H]2[C@@H](CC[C@@H]3[C@@H]2CC[C@]2(C)[C@@H]([C@H](C)CCC(C)(C)O)CC[C@@H]32)C1 [Compound 679] |  | 105% |  | 172% |  |  | 5110 nM | 280 nM
8 | CC[C@]1(O)CC[C@@]2(C)C(=CC[C@H]3[C@@H]4CC[C@H]([C@H](C)CCC(O)c5ccccc5)[C@@]4(C)CC[C@@H]32)C1 (stereo partly shown) [Compound 761] | 476 nM | 302% | 249 nM | 197% |  |  |  | 
9 | CC[C@]1(O)CC[C@H]2C(=CC[C@@H]3[C@@H]2CC[C@]2(C)[C@@H]([C@H](C)CCC(C)(C)O)CC[C@@H]32)C1 [Compound 780] |  | 132% |  | 170% |  |  | 341 nM | 263 nM
10 | CC[C@]1(O)CC[C@@]2(C)C(=CC[C@H]3[C@@H]4CC[C@H]([C@H](C)CC[C@@H](O)c5ccccc5)[C@@]4(C)CC[C@@H]32)C1 [Compound 861] | 200 nM | 183% | 247 nM | 390% |  |  |  | 
11 | CC[C@]1(O)CC[C@@]2(C)C(=CC[C@H]3[C@@H]4CC[C@H]([C@H](C)CC[C@H](O)c5ccccc5)[C@@]4(C)CC[C@@H]32)C1 [Compound 961] | 617 nM | 138% | 180 nM | 97.4% |  |  |  | 
12 | C[C@H](CCC(C)(C)O)[C@H]1CC[C@H]2[C@@H]3CC=C4C[C@](O)(C(F)(F)F)CC[C@]4(C)[C@H]3CC[C@]12C [Compound 1839] |  | 493% |  | 568% |  |  | 295 nM | 
13 | C[C@H](CCC1(O)CCOC1)[C@H]1CC[C@H]2[C@@H]3CC[C@H]4C[C@](O)(C(F)(F)F)CC[C@]4(C)[C@H]3CC[C@]12C (stereo partly shown) [Compound 1967] | 171 nM | 347% | 113 nM | 374% |  |  |  | 
14 | C[C@H](CC[C@H](O)C1CCOCC1)[C@H]1CC[C@H]2[C@@H]3CC[C@H]4C[C@](O)(C(F)(F)F)CC[C@]4(C)[C@H]3CC[C@]12C [Compound 2080] | 165 nM | 77.2% | 187 nM | 147% |  |  |  | 
15 | C[C@H](CC[C@@H](O)C1CCOCC1)[C@H]1CC[C@H]2[C@@H]3CC[C@H]4C[C@](O)(C(F)(F)F)CC[C@]4(C)[C@H]3CC[C@]12C [Compound 2081] | 129 nM | 126% | 175 nM | 215% |  |  |  | 
16 | C[C@H](O)CCC[C@@H](C)[C@H]1CC[C@H]2[C@@H]3CC[C@H]4C[C@](O)(C(F)(F)F)CC[C@]4(C)[C@H]3CC[C@]12C [Compound 2113] |  | 403% |  | 285% |  |  |  | 
17 | C[C@H](CC[C@H](O)C(C)(C)C)[C@H]1CC[C@H]2[C@@H]3CC[C@H]4C[C@](O)(C(F)(F)F)CC[C@]4(C)[C@H]3CC[C@]12C [Compound 2184] | 65.8 nM |  | 80 nM |  |  |  |  | 
18 | C[C@H](CC[C@@H](C)O)[C@H]1CC[C@H]2[C@@H]3CC[C@H]4C[C@](O)(C(F)(F)F)CC[C@]4(C)[C@H]3CC[C@]12C [Compound 2285] | 764 nM | 205% | 494 nM | 220% |  |  |  | 
19 | C[C@H](CCC1(O)CCC(F)(F)CC1)[C@H]1CC[C@H]2[C@@H]3CC=C4C[C@](O)(C(F)(F)F)CC[C@]4(C)[C@H]3CC[C@]12C [Compound 2392] | 104 nM |  | 47.5 nM |  |  |  |  | 
20 | C[C@H](CCCO)[C@H]1CC[C@H]2[C@@H]3CC[C@H]4C[C@](O)(C(F)(F)F)CC[C@]4(C)[C@H]3CC[C@]12C [Compound 2499] | 768 nM | 180% | 751 nM | 238% |  |  |  | 
21 | C[C@H](CCC(O)C(C)(C)C)[C@H]1CC[C@H]2[C@@H]3CC=C4C[C@](O)(C(F)(F)F)CC[C@]4(C)[C@H]3CC[C@]12C (stereo partly shown) [Compound 2500] | 63.3 nM |  | 91.1 nM |  |  |  |  | 
22 | C[C@H](O)CC[C@@H](C)[C@H]1CC[C@H]2[C@@H]3CC=C4C[C@](O)(C(F)(F)F)CC[C@]4(C)[C@H]3CC[C@]12C [Compound 2602] | 289 nM | 163% | 279 nM | 367% |  |  |  | 
23 | C[C@H](CC[C@@]1(O)CCOC1)[C@H]1CC[C@H]2[C@@H]3CC[C@H]4C[C@](O)(C(F)(F)F)CC[C@]4(C)[C@H]3CC[C@]12C [Compound 2706] | > 10000 nM | 96.8% | 124 nM | 139% |  |  |  | 
24 | C[C@H](CC[C@]1(O)CCOC1)[C@H]1CC[C@H]2[C@@H]3CC[C@H]4C[C@](O)(C(F)(F)F)CC[C@]4(C)[C@H]3CC[C@]12C [Compound 2707] |  | 113% |  | 259% |  |  | 119 nM | 103 nM
25 | C[C@H](CCC(O)C(F)(F)F)[C@H]1CC[C@H]2[C@@H]3CC[C@H]4C[C@](O)(C(F)(F)F)CC[C@]4(C)[C@H]3CC[C@]12C (stereo partly shown) [Compound 2918] | 298 nM | 532% | 339 nM | 506% |  |  |  | 
26 | C[C@H](CC[C@](C)(O)C(F)(F)F)[C@H]1CC[C@H]2[C@@H]3CC=C4C[C@](O)(C(F)(F)F)CC[C@]4(C)[C@H]3CC[C@]12C [Compound 3035] | 61 nM |  | 75.7 nM |  |  |  |  | 
27 | C[C@H](CCC[C@@H](O)C(F)(F)F)[C@H]1CC[C@H]2[C@@H]3CC[C@H]4C[C@](O)(C(F)(F)F)CC[C@]4(C)[C@H]3CC[C@]12C [Compound 3114] |  | 318% |  | 294% |  |  | 382 nM | 244 nM
